Holding throughout (format): biochemical
The target in one assay is T1, rat cathepsin K (Rattus norvegicus, UniProt O35186).
T1 construct: The proform of cathepsin K was converted to mature cathepsin K by brief exposure to pH 4; made in house; host or cells: baculovirus; Trichoplusia ni High Five cells (virus raised in Sf-9)
T1 sequence (O35186 115-329): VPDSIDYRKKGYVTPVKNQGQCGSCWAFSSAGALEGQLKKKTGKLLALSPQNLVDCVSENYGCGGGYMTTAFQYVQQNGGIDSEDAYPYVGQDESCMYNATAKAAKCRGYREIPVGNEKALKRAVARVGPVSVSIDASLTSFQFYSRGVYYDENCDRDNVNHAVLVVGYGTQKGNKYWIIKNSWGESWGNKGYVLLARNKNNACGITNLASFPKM
Put plainly: Cathepsin K inhibition assay, fluorogenic substrate Cbz-Phe-Arg-AMC, progress curve method. Conditions: Table 2; rat recombinant enzyme, pH 5.5, 30° C., 10 μM substrate; read-out: rCat K Ki. How it is done: (§1) All assays for cathepsin K were carried out with human and rat recombinant enzyme. Assays for cathepsins S Et V were also carried out with human recombinant enzyme. Assays for human cathepsins B. H. and L were carried out with enzyme, purchased from Athens Research and Technology, Inc., prepared from human liver tissue. Standard assay conditions for the determination of kinetic constants used a fluorogenic peptide substrate, typically (5S,8S)-13-amino-5-benzyl-13-imino-3-methylene-N-(4methyl-2-oxo-2H-chromen-7-yl)-6-oxo-1-phenyl-2-oxa-4,7,12-triazatridecane-8-carboxamide (Cbz-Phe-Arg-AMC), and were determined in 100 mM sodium acetate at pH 5.5 containing 10 mM dithiothreitol and 120 mM sodium chloride. A stock substrate solution of Cbz-Phe-Arg-AMC was prepared at a concentration of 50 mM in dimethyl sulfoxide. This substrate was diluted into the assay for a final substrate concentration of 10 μM in the rat cathepsin K, human cathepsin K, and human cathepsin B assays; a final substrate concentration of 5 μM in the human cathepsin L assay; and a final substrate concentration of 2 μM in the human cathepsin V assay.
(§2) All assays contained 10% dimethyl sulfoxide. […] All assays were conducted at 30° C. Product fluorescence (excitation at 360 nm; emission at 440 nm, (except cathepsin H which used excitation at 340 nm; emission at 420 nm)) was monitored with a PerSeptive Biosystems Cytofluor II fluorescence plate reader. Product progress curves were generated over 2.3 h monitoring the formation of 7-amino-4-methylcoumarin product (or β-naphthalamide for cathepsin H).
Scale-Up and Fermentation: The method of O'Reilly et al. (1994) was used for baculovirus expression with the following details. Two liters of Spodoptera frugiperda (Sf-9) cells (ATCC) were grown in Grace's Supplemented medium (Life Technologies) supplemented with 2 g/L glucose, 10% a fetal bovine serum (HyClone) and 0.10% pluronic F-68 (Life Technologies). Cells were grown in a 6 L shake flask at 150 RPM at 28° C. for 24 h to a density of 10^6 cells/mL, and then infected at a multiplicity of infection (MOI) of 0.1. The cells continued to grow for 72 h post-infection, before the virus was harvested by centrifugation at 1400× g for 30 min. Virus was titered as described (Summers and Smith, 1987).
One and one-half liters of Trichoplusia ni (T. ni) High Five (TM) cells [JRH Biosciences, Woodland, Calif. (adapted to suspension and serum-free medium)] grown in Excell 405 (TM) medium (JRH Biosciences) with 50 ug/mL gentamicin (Life Technologies) were added to a 15 L stirred tank reactor (Quark Enterprises, Inc) at a density of ˜0.5×10^6 cells/mL The cells were grown for 24 h at 28° C., 50 RPM, and 50% dissolved oxygen. Cells were then infected at a density of ˜10^6 cells/mL with an MOI of 1 and grown for 48 h post-infection. Media were separated from cells at a rate of 1 L/min using the Centritech 100 (TM) continuous-flow centrifuge (DuPont) operating at 200× g.
Protein Purification: Media (human and rat) were filtered through a Whatman 3 filter, and then loaded onto a 25 mL Poros HS II (26 mm×47 mm) cation exchange column equilibrated in 25 mM sodium acetate at pH 5.5 (equilibration buffer). The column was washed until the absorbance reached the baseline value, and then the protein was eluted with a linear gradient from 0-2 M sodium chloride in the equilibration buffer. Column fractions were analyzed by SDS-PAGE, N-terminal sequencing, and mass spectrometry. Fractions containing the proform of cathepsin K were pooled and frozen at −80° C. The proform was concentrated in an Amicon Centriprep 10 and fractionated with a Superdex 75 column (26 mm×600 mm, Pharmacia) equilibrated in 400 mM sodium chloride, 25 mM sodium acetate at pH 5.5.
Cathepsin K Activation: The proform of cathepsin K was converted to mature cathepsin K by brief exposure to pH 4 in the presence of 5 mM L-cysteine. […]

The target of the next assay is human cathepsin S (Homo sapiens, UniProt P25774). Put plainly: Cathepsin S inhibition assay, fluorogenic substrate Cbz-Val-Val-Arg-AMC. Conditions: Table 2; human recombinant enzyme, pH 5.5, 30° C., 10 μM substrate; read-out: hCat S Ki. How it is done:
as §1
A stock substrate solution of benzyl (1S)-1-{[((1S)-1-{[((1S)-4-{[amino(imino)methyl]amino}-1-{[(4-methyl-2-oxo-2H-chromen-7-yl)amino]carbonyl}butyl)amino]carbonyl}-2-methylpropyl)amino]carbonyl}-2-methylpropylcarbamate (Cbz-Val-Val-Arg-AMC) was prepared at a concentration of 10 mM in dimethyl sulfoxide. This substrate was diluted into the assay for a final substrate concentration of 10 μM in the human cathepsin S assay.
as §2
(§3) Potential inhibitors were evaluated using the progress curve method. Assays were carried out in the presence of variable concentrations of test compound. Reactions were initiated by addition of buffered solutions of inhibitor and substrate to enzyme. Data analysis was conducted according to one of two procedures depending on the appearance of the progress curves in the presence of inhibitors. For those compounds whose progress curves were linear, the enzymatic activity (RATE) was plotted against the concentration of test compound, including inhibitor concentration of zero ([I]=0), and the IC50 determined from a fit of equation 1 to the data, RATE=Vmax/(1+([I]/IC50)) (1) where Vmax is the best fit estimate of the maximal enzymatic activity. Ki values were calculated from IC50 values using equation 2 assuming a competitive model. [formula]

A further assay addresses human cathepsin H (Homo sapiens, UniProt P09668). Put plainly: Cathepsin H inhibition assay, substrate L-Arg-β-naphthalamide. Conditions: Table 2; enzyme from human liver tissue, pH 5.5, 30° C.; read-out: hCat H Ki. How it is done: as §1
A stock substrate solution of (2S)-2-amino-5-{[amino(imino)methyl]amino}-N-(2-naphthyl)pentanamide hydrochloride (L-Arg-β-naphthalamide.HCl) was prepared at a concentration of 10 mM in dimethyl sulfoxide. This substrate was diluted into the assay for a final substrate concentration of […] in the cathepsin H assay.
as §2, §3

These results are taken from patent publication US20050107616A1, “Alpha-ketoamide derivatives as cathepsin k inhibitors” (priority 2001, published 2005).

For orientation: Ki means a measure of affinity in units of concentration, obtained from inhibition or displacement.

human cathepsin S, sequence (P25774 115-331): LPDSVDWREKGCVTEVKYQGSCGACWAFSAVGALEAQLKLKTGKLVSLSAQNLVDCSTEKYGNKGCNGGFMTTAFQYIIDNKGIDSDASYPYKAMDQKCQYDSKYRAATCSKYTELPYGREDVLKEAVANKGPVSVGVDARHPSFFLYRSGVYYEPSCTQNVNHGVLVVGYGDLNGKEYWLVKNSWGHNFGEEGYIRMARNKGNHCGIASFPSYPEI
human cathepsin H, sequence (P09668 116-335 limits assumed, other chains not shown): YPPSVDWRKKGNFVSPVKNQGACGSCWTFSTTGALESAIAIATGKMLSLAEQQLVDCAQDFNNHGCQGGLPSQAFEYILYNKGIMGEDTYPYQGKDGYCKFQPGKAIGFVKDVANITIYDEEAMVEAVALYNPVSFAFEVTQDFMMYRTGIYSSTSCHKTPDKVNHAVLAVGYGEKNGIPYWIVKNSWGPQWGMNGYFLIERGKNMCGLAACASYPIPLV

With `CCCC[C@H](NC(=O)O[C@H](Cc1nnc(-c2ccc(F)cc2)o1)C(C)(C)C)C(=O)C(=O)Nc1ccnn1C` (stereo in doubt) [Example 22, (1R)-1-{[5-(4-fluorophenyl)-1,3,4-oxadiazol-2-yl]methyl}-2,2-dimethylpropyl(1S)-1-[[(1-methyl-1H-pyrazol-5-yl)amino](oxo)acetyl]pentyl carbamate], the Ki at rat cathepsin K and at human cathepsin S was 100 to 10000 nM throughout.
With `CCCC[C@H](NC(=O)O[C@H](Cn1ccc(-c2ccc(C(F)(F)F)cc2)n1)C(C)(C)C)C(=O)C(=O)Nc1ccn[nH]1` [Example 1], the Ki at rat cathepsin K was in the range of 0.01 to 1 nM; at human cathepsin S, 0.01 to 1 nM; at human cathepsin H, 100 to 10000 nM.
In the case of `CCCC[C@H](NC(=O)O[C@H](Cn1cnc(-c2ccc(C(F)(F)F)cc2)c1)C(C)(C)C)C(=O)C(=O)Nc1ccn[nH]1` [Example 7, (1S)-2,2-dimethyl-1-({4-[4-(trifluoromethyl)phenyl]-1H-imidazol-1-yl}methyl)propyl(1S)-1-[oxo(1H-pyrazol-5-ylamino)acetyl]pentylcarbamate], the figures for the Ki on rat cathepsin K, on human cathepsin S and on human cathepsin H were 0.01 to 1 nM, 0.01 to 1 nM and 100 to 10000 nM, respectively.
In the case of `CCCC[C@H](NC(=O)O[C@H](Cn1cnc(-c2ccc(C(F)(F)F)cc2)c1)C(C)(C)C)C(=O)C(=O)Nc1ccnn1C1CCC1` [Example 35, (1S)-2,2-dimethyl-1-({4-[4-(trifluoromethyl)phenyl]-1H-imidazol-1-yl}methyl)propyl(1S)-1-[[(1-cyclobutyl-1H-pyrazol-5-yl)amino](oxo)acetyl]pentylcarbamate], the Ki is 1 to 100 nM on rat cathepsin K, 1 to 100 nM on human cathepsin S and 100 to 10000 nM on human cathepsin H.
On to `CCCC[C@H](NC(=O)O[C@H](Cn1cnc2cc(Cl)c(Cl)cc21)C(C)(C)C)C(=O)C(=O)Nc1ccn[nH]1` [Example 37, (1S)-1-[(5,6-dichloro-1H-benzimidazol-1-yl)methyl]-2,2-dimethylpropyl(1S)-1-[oxo(1H-pyrazol-5-ylamino)acetyl]pentylcarbamate], for which the Ki at rat cathepsin K lay in the range of 0.01 to 1 nM; on human cathepsin S, 0.01 to 1 nM; on human cathepsin H it was 100 to 10000 nM.
In the case of `CCCC[C@H](NC(=O)O[C@H](c1nnc(-c2ccc(C(F)(F)F)cc2)o1)C(C)(C)C)C(=O)C(=O)Nc1ccn[nH]1` [Example 38, (1S)-2,2-dimethyl-1-{5-[4-(trifluoromethyl)phenyl]-1,3,4-oxadiazol-2-yl}propyl(1S)-1-[oxo(1H-pyrazol-5-ylamino)acetyl]pentylcarbamate], the Ki at rat cathepsin K was in the range of 1 to 100 nM; at human cathepsin S, 1 to 100 nM; at human cathepsin H, 100 to 10000 nM.
`CCCC[C@H](NC(=O)O[C@H](c1nnc(-c2ccc(C(F)(F)F)cc2)o1)C(C)(C)C)C(=O)C(=O)NN1CCOC1=O` [Example 39, (1S)-2,2-dimethyl-1-{5-[4-(trifluoromethyl)phenyl]-1,3,4-oxadiazol-2-yl}propyl(1S)-1-{oxo[(2-oxo-1,3-oxazolidin-3-yl)amino]acetyl}pentylcarbamate]: the Ki on rat cathepsin K was 1 to 100 nM; on human cathepsin S it was 1 to 100 nM; at human cathepsin H, 100 to 10000 nM.
